Here are results for 1 molecule from publication PMC8344761 (Journal of Enzyme Inhibition and Medicinal Chemistry, 2021).

The target of this experiment is T1, A-Raf (Homo sapiens, UniProt P10398).
T1 sequence (P10398 1-606): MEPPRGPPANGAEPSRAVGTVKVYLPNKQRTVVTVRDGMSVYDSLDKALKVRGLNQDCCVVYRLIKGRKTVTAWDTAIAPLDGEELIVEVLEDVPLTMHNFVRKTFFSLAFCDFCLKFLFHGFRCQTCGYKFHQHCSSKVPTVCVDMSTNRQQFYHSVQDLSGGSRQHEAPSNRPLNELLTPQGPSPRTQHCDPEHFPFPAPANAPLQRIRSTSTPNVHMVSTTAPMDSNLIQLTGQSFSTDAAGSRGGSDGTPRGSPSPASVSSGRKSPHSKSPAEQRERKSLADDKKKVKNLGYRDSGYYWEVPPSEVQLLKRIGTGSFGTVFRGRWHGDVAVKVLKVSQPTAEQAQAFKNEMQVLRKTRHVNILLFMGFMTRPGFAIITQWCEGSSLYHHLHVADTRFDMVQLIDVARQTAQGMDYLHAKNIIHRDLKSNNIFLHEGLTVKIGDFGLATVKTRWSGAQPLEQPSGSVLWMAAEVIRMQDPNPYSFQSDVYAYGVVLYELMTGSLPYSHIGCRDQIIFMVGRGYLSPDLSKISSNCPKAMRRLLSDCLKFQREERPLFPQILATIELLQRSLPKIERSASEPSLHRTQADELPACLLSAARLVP
The experiment can be described thus: Raf kinase assay (Kinase HotSpot, Reaction Biology Corp.). The class given is biochemical.

In turn, `CNC(=O)c1cc(Oc2c(C)nc(NC(=O)Nc3ccc(Cl)c(C(F)(F)F)c3)c(C)c2C)ccn1` [Compound 4, 4-((6–(3-(4-Chloro-3-(trifluoromethyl)phenyl)ureido)-2,4,5-trimethylpyridin-3-yl)oxy)-N-methylpicolinamide] registered an inhibition at 1 µM (fixed concentration 1 μM, mean of two independent experiments) of 56%. Besides, under “mean ± SD of two independent experiments, read-out: In vitro Raf kinase inhibition IC50 A-Raf”, the IC50 was found to be 312 ± 25.9 nM.
